The numbers were not newly measured in US9206237B2, “Cystine knot peptides that bind alpha-V-beta-6 integrin” (priority 2011, dated 2015), which cites them from elsewhere.

A word on the IC50: it is the concentration needed to halve the response being measured.

For data set [1], the target named is T1, alpha-v-beta-6 (Homo sapiens, UniProt P06756+P18564). As to conditions: inhibition of RGD-dependent ligand binding; read-out: IC50, isolated receptor assays.
Target sequence in this assay (P06756 31-992 limits assumed): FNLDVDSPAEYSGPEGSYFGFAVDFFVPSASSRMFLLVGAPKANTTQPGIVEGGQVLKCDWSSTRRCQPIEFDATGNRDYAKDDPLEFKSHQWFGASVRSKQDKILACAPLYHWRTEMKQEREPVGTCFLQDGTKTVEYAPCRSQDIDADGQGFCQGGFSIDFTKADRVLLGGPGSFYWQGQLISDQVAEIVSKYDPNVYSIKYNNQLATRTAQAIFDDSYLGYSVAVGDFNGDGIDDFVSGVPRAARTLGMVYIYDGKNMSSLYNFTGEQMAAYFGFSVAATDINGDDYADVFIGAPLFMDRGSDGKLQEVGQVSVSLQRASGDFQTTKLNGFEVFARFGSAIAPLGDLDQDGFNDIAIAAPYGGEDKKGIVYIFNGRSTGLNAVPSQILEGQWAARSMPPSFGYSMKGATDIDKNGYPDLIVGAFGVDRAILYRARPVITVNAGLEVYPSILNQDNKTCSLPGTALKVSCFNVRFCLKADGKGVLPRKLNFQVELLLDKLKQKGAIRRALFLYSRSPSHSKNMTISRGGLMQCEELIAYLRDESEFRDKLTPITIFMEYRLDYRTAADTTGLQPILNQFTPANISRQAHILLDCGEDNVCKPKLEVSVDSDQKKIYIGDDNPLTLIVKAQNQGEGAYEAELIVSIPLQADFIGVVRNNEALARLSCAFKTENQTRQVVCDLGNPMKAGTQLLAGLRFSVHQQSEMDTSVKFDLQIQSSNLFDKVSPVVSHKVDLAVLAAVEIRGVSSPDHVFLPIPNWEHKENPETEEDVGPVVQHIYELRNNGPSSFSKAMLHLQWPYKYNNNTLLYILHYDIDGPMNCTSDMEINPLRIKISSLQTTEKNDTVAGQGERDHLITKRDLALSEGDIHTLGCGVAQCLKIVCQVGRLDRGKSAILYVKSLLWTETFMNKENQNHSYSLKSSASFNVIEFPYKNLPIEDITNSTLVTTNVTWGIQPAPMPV
Target sequence in this assay (P18564 22-709 limits assumed): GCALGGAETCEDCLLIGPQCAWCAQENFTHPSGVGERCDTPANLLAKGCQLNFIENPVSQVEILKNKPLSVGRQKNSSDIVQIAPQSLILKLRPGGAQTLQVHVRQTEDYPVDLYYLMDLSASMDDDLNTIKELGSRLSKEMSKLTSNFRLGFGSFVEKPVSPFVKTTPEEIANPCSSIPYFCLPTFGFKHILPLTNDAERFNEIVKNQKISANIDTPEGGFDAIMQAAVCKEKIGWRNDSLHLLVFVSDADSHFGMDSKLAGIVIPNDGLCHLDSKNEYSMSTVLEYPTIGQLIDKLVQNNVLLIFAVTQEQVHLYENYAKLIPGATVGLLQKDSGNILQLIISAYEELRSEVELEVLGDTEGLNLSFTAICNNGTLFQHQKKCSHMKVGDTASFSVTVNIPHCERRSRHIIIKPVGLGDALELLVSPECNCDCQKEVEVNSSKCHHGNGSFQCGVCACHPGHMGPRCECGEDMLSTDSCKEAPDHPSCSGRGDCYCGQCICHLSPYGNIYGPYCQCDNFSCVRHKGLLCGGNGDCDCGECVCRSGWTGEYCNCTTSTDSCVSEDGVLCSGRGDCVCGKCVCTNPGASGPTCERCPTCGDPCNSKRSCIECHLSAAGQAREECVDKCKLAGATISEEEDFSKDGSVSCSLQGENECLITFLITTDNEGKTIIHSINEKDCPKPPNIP
For data set [2], the target named is T1, alpha-v-beta-6. The following applies: read-out: IC50, cell adhesion assays.
Target sequence in this assay (P06756 31-1048): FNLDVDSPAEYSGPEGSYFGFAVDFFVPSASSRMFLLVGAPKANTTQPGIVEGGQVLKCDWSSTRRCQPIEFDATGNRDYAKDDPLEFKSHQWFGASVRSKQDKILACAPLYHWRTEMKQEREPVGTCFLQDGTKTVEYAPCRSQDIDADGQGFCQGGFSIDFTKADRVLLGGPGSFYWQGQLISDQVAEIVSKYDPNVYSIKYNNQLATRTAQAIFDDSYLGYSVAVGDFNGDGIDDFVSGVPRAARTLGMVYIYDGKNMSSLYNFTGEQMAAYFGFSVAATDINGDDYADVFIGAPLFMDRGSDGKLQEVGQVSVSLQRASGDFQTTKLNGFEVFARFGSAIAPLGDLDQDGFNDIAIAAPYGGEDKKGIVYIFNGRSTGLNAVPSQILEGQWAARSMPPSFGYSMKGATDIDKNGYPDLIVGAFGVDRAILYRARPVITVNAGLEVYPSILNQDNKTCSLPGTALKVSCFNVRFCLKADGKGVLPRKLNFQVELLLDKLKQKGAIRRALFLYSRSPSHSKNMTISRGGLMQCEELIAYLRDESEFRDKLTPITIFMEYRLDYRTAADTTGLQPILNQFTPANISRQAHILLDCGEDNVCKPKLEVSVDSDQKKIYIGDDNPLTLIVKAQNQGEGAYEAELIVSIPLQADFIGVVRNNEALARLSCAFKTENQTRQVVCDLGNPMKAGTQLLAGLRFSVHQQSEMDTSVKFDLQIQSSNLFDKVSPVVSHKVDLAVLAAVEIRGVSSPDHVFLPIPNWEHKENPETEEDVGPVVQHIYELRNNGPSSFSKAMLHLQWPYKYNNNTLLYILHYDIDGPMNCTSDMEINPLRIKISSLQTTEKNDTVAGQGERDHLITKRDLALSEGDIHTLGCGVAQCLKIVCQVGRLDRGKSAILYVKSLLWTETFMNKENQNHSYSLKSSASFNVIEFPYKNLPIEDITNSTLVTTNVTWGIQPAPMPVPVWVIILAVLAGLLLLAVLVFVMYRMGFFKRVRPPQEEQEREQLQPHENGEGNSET
Target sequence in this assay (P18564 22-788): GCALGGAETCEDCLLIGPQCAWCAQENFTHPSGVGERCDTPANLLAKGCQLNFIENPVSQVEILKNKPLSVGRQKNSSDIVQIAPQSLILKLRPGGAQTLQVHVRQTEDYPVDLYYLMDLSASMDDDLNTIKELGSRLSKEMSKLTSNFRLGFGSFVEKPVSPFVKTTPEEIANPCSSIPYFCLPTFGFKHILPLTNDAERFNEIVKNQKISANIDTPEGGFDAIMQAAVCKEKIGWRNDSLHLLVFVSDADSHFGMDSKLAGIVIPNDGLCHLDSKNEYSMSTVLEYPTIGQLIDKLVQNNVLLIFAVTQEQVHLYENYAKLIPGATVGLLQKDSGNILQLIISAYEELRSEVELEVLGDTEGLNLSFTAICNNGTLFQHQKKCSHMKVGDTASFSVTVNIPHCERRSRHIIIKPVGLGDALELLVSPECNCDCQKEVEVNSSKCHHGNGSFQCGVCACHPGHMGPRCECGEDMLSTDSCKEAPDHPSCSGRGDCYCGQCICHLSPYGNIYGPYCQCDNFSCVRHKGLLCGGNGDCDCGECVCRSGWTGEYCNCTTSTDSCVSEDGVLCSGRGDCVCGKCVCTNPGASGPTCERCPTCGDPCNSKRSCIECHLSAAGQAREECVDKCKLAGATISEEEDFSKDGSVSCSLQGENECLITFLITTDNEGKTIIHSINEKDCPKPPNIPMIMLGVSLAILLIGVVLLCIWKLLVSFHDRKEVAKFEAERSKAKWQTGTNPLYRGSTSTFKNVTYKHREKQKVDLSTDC

Like-named read-outs stand apart in the source and are kept apart here.

In the case of RTDLDSLRTYTL, the IC50 in data set [1] is 20 nM; in data set [2], 50 µM.
